In ChEMBL document CHEMBL1145735, “Synthesis and antitumor activity of novel C-8 ester derivatives of leinamycin” (Bioorg Med Chem Lett, 2003):

How the values were obtained:
[1] = tested on: Mus musculus; experiment: In vivo antitumor activity against lymphocytic leukemia P388 in mice expressed as maximal increase in life span at an optimal dose of 2 mg/kg.; format: functional
[2] = tested on: Mus musculus; experiment: In vivo antitumor activity against murine sarcoma 180 cells at an optimal dose of 2 mg/kg.; format: functional
[3] = tested on: Mus musculus; experiment: In vivo antitumor activity against murine sarcoma 180 cells at an optimal dose of 4 mg/kg.; format: functional
[4] = tested on: HeLa; experiment: In vitro antiproliferative activity against HeLa S3 cells.; format: functional, cell-based; conditions: Homo sapiens
[5] = tested on: Mus musculus; experiment: In vivo antitumor activity against lymphocytic leukemia P388 in mice expressed as maximal increase in life span at an optimal dose of 8 mg/kg.; format: functional
[6] = tested on: Mus musculus; experiment: Antitumor activity against human Lu-65 tumor cells, at a dose of 5.3 mg/kg upon i.v. administration in nude mice; format: functional; conditions: route intravenous
[7] = tested on: Mus musculus; experiment: In vivo antitumor activity against murine sarcoma 180 cells at an optimal dose of 8 mg/kg.; format: functional
[8] = tested on: Mus musculus; experiment: In vivo antitumor activity against murine sarcoma 180 cells at an optimal dose of 16 mg/kg.; format: functional
[9] = tested on: Mus musculus; experiment: In vivo antitumor activity against lymphocytic leukemia P388 in mice expressed as maximal increase in life span at an optimal dose of 4 mg/kg.; format: functional
[10] = tested on: Mus musculus; experiment: Antitumor activity against human Lu-65 tumor cells, at a dose of 12 mg/kg upon i.v. administration in nude mice; format: functional; conditions: route intravenous
[11] = tested on: Mus musculus; experiment: Antitumor activity against human A-2780 tumor cells, at a dose of 12 mg/kg upon i.v. administration in nude mice; format: functional; conditions: route intravenous
[12] = tested on: Mus musculus; experiment: In vivo antitumor activity against lymphocytic leukemia P388 in mice expressed as maximal increase in life span at an optimal dose of 16 mg/kg.; format: functional
[13] = tested on: Mus musculus; experiment: Antitumor activity against human A-2780 tumor cells, at a dose of 5.3 mg/kg upon i.v. administration in nude mice; format: functional; conditions: route intravenous
[14] = tested on: Mus musculus; experiment: Antitumor activity against human HCT116 tumor cells, at a dose of 5.3 mg/kg upon i.v. administration in nude mice; format: functional; conditions: route intravenous
[15] = tested on: Mus musculus; experiment: Antitumor activity against human Lu-65 tumor cells, at a dose of 8 mg/kg upon i.v. administration in nude mice; format: functional; conditions: route intravenous
[16] = tested on: Mus musculus; experiment: In vivo antitumor activity against murine sarcoma 180 cells at an optimal dose of mg/kg.; format: functional
[17] = tested on: Mus musculus; experiment: Antitumor activity against human HCT116 tumor cells, at a dose of 12 mg/kg upon i.v. administration in nude mice; format: functional; conditions: route intravenous

How did the ILS at 2 mg/kg [1] turn out when `C/C1=C\[C@@H](O)C(=O)/C=C/C=Cc2csc(n2)[C@@H](C)N2C(=O)C[C@@]([C@@](C)(O)C(=O)SCc3oc(=O)oc3C)(CC1)[S+]2[O-]` (stereo partly drawn) was run?
The ILS at 2 mg/kg was 65%.

And the T/C [2]?
The T/C was 0.67.

For `C/C1=C\[C@@H](OC(=O)CNC(=O)CNC(=O)OCc2ccccc2)C(=O)/C=C/C=C/c2csc(n2)[C@@H](C)N2C(=O)C[C@@]([C@@](C)(O)C(=O)SCc3oc(=O)oc3C)(CC1)[S+]2[O-]` (stereo partly drawn), which T/C [3] is on record?
Its T/C is 0.61.

And the IC50 [4]?
Its IC50 is 15 nM.

What about the ILS at 8 mg/kg [5] of the same compound?
Its ILS at 8 mg/kg is 64%.

With `COCCOCCOCC(=O)O[C@@H]1/C=C(\C)CC[C@]2([C@@](C)(O)C(=O)SCc3oc(=O)oc3C)CC(=O)N([C@H](C)c3nc(cs3)/C=C/C=C/C1=O)[S+]2[O-]` (stereo partly drawn) as the compound, how does the T/C [6] read?
Its T/C is 0.35.

And the ILS at 2 mg/kg [1]?
The ILS at 2 mg/kg was 54%.

And the T/C [7]?
Its T/C is 0.39.

What about the IC50 [4] of the same compound?
Its IC50 is 5.5 nM.

What does the source list for `C/C1=C\[C@@H](OC(=O)CNC(=O)CCNC(=O)OC(C)(C)C)C(=O)/C=C/C=C/c2csc(n2)[C@@H](C)N2C(=O)C[C@@]([C@@](C)(O)C(=O)SCc3oc(=O)oc3C)(CC1)[S+]2[O-]` (stereo partly drawn)?
T/C [8]: 0.23; IC50 [4]: 12 nM; ILS at 8 mg/kg [5]: 70%

What does the source list for `C/C1=C\[C@@H](OC(=O)CNC(=O)CNC(=O)OC(C)(C)C)C(=O)/C=C/C=C/c2csc(n2)[C@@H](C)N2C(=O)C[C@@]([C@@](C)(O)C(=O)SCc3oc(=O)oc3C)(CC1)[S+]2[O-]` (stereo partly drawn)?
ILS at 4 mg/kg [9]: 39%; T/C [10]: 0.33; T/C [11]: 0.51; T/C [7]: 0.39; IC50 [4]: 14 nM

Which results are given for `C/C1=C\[C@@H](OC(=O)CNC(=O)OCc2ccccc2)C(=O)/C=C/C=C/c2csc(n2)[C@@H](C)N2C(=O)C[C@@]([C@@](C)(O)C(=O)SCc3oc(=O)oc3C)(CC1)[S+]2[O-]` (stereo partly drawn)?
T/C [8]: 0.36; IC50 [4]: 4 nM; ILS at 8 mg/kg [5]: 98%

What does the source list for `COCCOCCOCCOCCOCCOCC(=O)O[C@@H]1/C=C(\C)CC[C@]2([C@@](C)(O)C(=O)SCc3oc(=O)oc3C)CC(=O)N([C@H](C)c3nc(cs3)/C=C/C=C/C1=O)[S+]2[O-]` (stereo partly drawn)?
T/C [7]: 0.58; IC50 [4]: 43 nM

Which T/C [7] does the source give for `C/C1=C\[C@@H](OC(=O)CNC(=O)CNC(=O)c2ccccc2)C(=O)/C=C/C=C/c2csc(n2)[C@@H](C)N2C(=O)C[C@@]([C@@](C)(O)C(=O)SCc3oc(=O)oc3C)(CC1)[S+]2[O-]` (stereo partly drawn) here?
The T/C was 0.46.

And the IC50 [4]?
The IC50 was 32 nM.

And the ILS at 16 mg/kg [12]?
The ILS at 16 mg/kg was 90%.

For `C/C1=C\[C@@H](OC(=O)CCNC(=O)CCNC(=O)OCc2ccccc2)C(=O)/C=C/C=C\c2csc(n2)[C@H](C)NC(=O)C[C@@]2(CC1)[S+]([O-])SC(=O)[C@]2(C)O` (stereo partly drawn), which T/C [8] is on record?
The T/C was 0.58.

And the IC50 [4]?
Its IC50 is 61 nM.

What about the ILS at 16 mg/kg [12] of the same compound?
The ILS at 16 mg/kg was 62%.

For `C/C1=C\[C@@H](OC(=O)CNC=O)C(=O)/C=C/C=C\c2csc(n2)[C@H](C)NC(=O)C[C@@]2(CC1)[S+]([O-])SC(=O)[C@]2(C)O` (stereo partly drawn), which T/C [13] is on record?
The T/C was 0.29.

And the T/C [6]?
Its T/C is 0.43.

What about the T/C [3] of the same compound?
The T/C was 0.46.

What about the IC50 [4] of the same compound?
The IC50 was 11 nM.

And the T/C [14]?
The T/C was 0.62.

What about the ILS at 8 mg/kg [5] of the same compound?
Its ILS at 8 mg/kg is 56%.

`COCCOCCOCCOCCOCCOCC(=O)O[C@@H]1/C=C(\C)CC[C@]2(CC(=O)N[C@@H](C)c3nc(cs3)/C=C\C=C\C1=O)[S+]([O-])SC(=O)[C@]2(C)O` (stereo partly drawn) was tested. Which T/C [15] did it give?
The T/C was 0.2.

What about the T/C [7] of the same compound?
Its T/C is 0.3.

And the IC50 [4]?
Its IC50 is 11 nM.

What does the source list for `COCCOCCOCCOCC(=O)O[C@@H]1/C=C(\C)CC[C@]2(CC(=O)N[C@@H](C)c3nc(cs3)/C=C\C=C\C1=O)[S+]([O-])SC(=O)[C@]2(C)O` (stereo partly drawn)?
T/C [3]: 0.82; IC50 [4]: 610 nM

How did the T/C [16] turn out when `C/C1=C\[C@@H](OC(=O)CNC(=O)OCc2ccccc2)C(=O)/C=C/C=C\c2csc(n2)[C@H](C)NC(=O)C[C@@]2(CC1)[S+]([O-])SC(=O)[C@]2(C)O` (stereo partly drawn) was run?
The T/C was 0.89.

And the IC50 [4]?
Its IC50 is 6.2 nM.

And the ILS at 8 mg/kg [5]?
Its ILS at 8 mg/kg is 54%.

What does the source list for `C/C1=C\[C@@H](OC(=O)COCCOCCO)C(=O)/C=C/C=C\c2csc(n2)[C@H](C)NC(=O)C[C@@]2(CC1)[S+]([O-])SC(=O)[C@]2(C)O` (stereo partly drawn)?
T/C [3]: 0.36; IC50 [4]: 25 nM

Which results are given for `C/C1=C\[C@@H](OC(=O)CNC(=O)CNC(=O)OCc2ccccc2)C(=O)/C=C/C=C\c2csc(n2)[C@H](C)NC(=O)C[C@@]2(CC1)[S+]([O-])SC(=O)[C@]2(C)O` (stereo partly drawn)?
ILS at 4 mg/kg [9]: 72%; T/C [10]: 0.3; T/C [11]: 0.63; T/C [7]: 0.3; IC50 [4]: 23 nM; T/C [17]: 0.48

How did the T/C [8] turn out when `C/C1=C\[C@@H](OC(=O)CCNC(=O)CNC(=O)OCc2ccccc2)C(=O)/C=C/C=C\c2csc(n2)[C@H](C)NC(=O)C[C@@]2(CC1)[S+]([O-])SC(=O)[C@]2(C)O` (stereo partly drawn) was run?
The T/C was 0.69.

What about the IC50 [4] of the same compound?
The IC50 was 150 nM.

What about the ILS at 16 mg/kg [12] of the same compound?
Its ILS at 16 mg/kg is 71%.
